Test results taken from ChEMBL document CHEMBL1201862, “PubChem BioAssay data set” (2004).
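Results reflect a 48-hour exposure of cells in 96-well plates to compound at five concentrations. Here, GI50 denotes the concentration required for 50% inhibition of growth.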 Activity calls are given as the source filed them. Rule as the data show it: active = GI50 up to about 1.1 µM and inactive = higher.

How the values were obtained:
Test in all cases: inhibition of tumour cell growth, NCI panel, 48 h
786-0 = system: 786-0
COLO 205 = system: COLO 205
HCT-116 = system: HCT-116
HOP-62 = system: HOP-62
HT-29 = system: HT-29
IGROV-1 = system: IGROV-1
KM12 = system: KM12
LOX IMVI = system: LOX IMVI
M14 = system: M14
NCI-H460 = system: NCI-H460
NCI/ADR-RES = system: NCI/ADR-RES
OVCAR-5 = system: OVCAR-5
RPMI-8226 = system: RPMI-8226
SF-268 = system: SF-268
SF-539 = system: SF-539
SN12C = system: SN12C
SR = system: SR
T47D = system: T47D
TK-10 = system: TK-10
MDA-N = system: MDA-N

Measured: GI50

CC(O)CCC(=O)c1ccoc1 (configuration not stated)
inactive: 786-0 > 10000 µM | COLO 205 5580 µM | HCT-116 5740 µM | HOP-62 6930 µM | HT-29 8450 µM | IGROV-1 7290 µM | KM12 7710 µM | LOX IMVI 6030 µM | M14 > 9420 µM | NCI-H460 7230 µM | NCI/ADR-RES 4990 µM | OVCAR-5 7820 µM | RPMI-8226 3740 µM | SF-268 7000 µM | SF-539 9930 µM | SN12C 7180 µM | SR > 9290 µM | T47D 5010 µM | TK-10 6980 µM

CC/C=C/C(=O)CC(O)(C(F)(F)F)C(F)(F)F
inactive: 786-0 > 100 µM | COLO 205 > 100 µM | HCT-116 > 100 µM | HOP-62 > 100 µM | HT-29 > 100 µM | IGROV-1 > 100 µM | KM12 > 100 µM | LOX IMVI > 100 µM | M14 > 100 µM | NCI-H460 > 100 µM | NCI/ADR-RES > 100 µM | OVCAR-5 > 100 µM | RPMI-8226 54.8 µM | SF-268 > 100 µM | SF-539 > 100 µM | SN12C > 100 µM | SR > 100 µM | T47D 82.2 µM | TK-10 > 100 µM

c1ccc(CNc2ncnc3nn[nH]c23)cc1
inactive: 786-0 > 100 µM | COLO 205 > 100 µM | HCT-116 > 100 µM | HOP-62 > 100 µM | HT-29 > 100 µM | IGROV-1 > 100 µM | KM12 > 100 µM | LOX IMVI > 100 µM | M14 > 100 µM | MDA-N > 100 µM | NCI/ADR-RES > 100 µM | OVCAR-5 > 100 µM | SF-539 > 100 µM | SN12C > 100 µM | T47D > 100 µM | TK-10 > 100 µM

CCC1=C(C)/C(=C/c2[nH]c(C(Br)Br)c(CC)c2C)N=C1C(Br)Br
inactive: 786-0 63.2 µM | COLO 205 5.87 µM | HCT-116 23.8 µM | HOP-62 28.6 µM | HT-29 28.5 µM | IGROV-1 23.9 µM | KM12 19.1 µM | LOX IMVI 21.2 µM | M14 55.7 µM | NCI-H460 26.4 µM | OVCAR-5 > 100 µM | RPMI-8226 9.68 µM | SF-268 73.3 µM | SF-539 53 µM | SN12C 31.2 µM | SR 10.8 µM | TK-10 41.2 µM

O=C1C=C(N2CCCC2)C(=O)c2c(O)ccc(O)c21
inactive: 786-0 > 10 µM | HOP-62 > 10 µM | HT-29 > 10 µM | IGROV-1 > 10 µM | KM12 > 10 µM | LOX IMVI > 10 µM | M14 6.32 µM | MDA-N > 10 µM | NCI-H460 > 10 µM | OVCAR-5 > 10 µM | SF-268 > 10 µM | SF-539 > 10 µM | SN12C > 10 µM | T47D > 10 µM | TK-10 > 10 µM

O=C(Nn1c(-c2ccccc2)nc2ccccc2c1=O)c1ccc(CS)cc1
inactive: 786-0 24.4 µM | COLO 205 60.3 µM | HCT-116 39.4 µM | HOP-62 > 100 µM | HT-29 53 µM | IGROV-1 26.1 µM | KM12 81.1 µM | LOX IMVI 1.67 µM | M14 47.6 µM | MDA-N 61.2 µM | NCI-H460 > 100 µM | OVCAR-5 > 100 µM | RPMI-8226 33.2 µM | SF-268 26.2 µM | SF-539 24.5 µM | SN12C 36.6 µM | SR 19.5 µM | T47D > 100 µM | TK-10 > 100 µM

Cc1cc(C)nc(/C(=N\NC(N)=O)C(=O)Nc2nc3ccc(C)cc3s2)c1
inactive: 786-0 > 100 µM | COLO 205 > 47.8 µM | HCT-116 > 56.5 µM | HOP-62 > 100 µM | HT-29 > 77.3 µM | IGROV-1 > 100 µM | KM12 > 100 µM | LOX IMVI > 46.6 µM | M14 > 100 µM | NCI-H460 > 100 µM | OVCAR-5 > 100 µM | RPMI-8226 > 48.2 µM | SF-268 > 100 µM | SF-539 > 100 µM | SN12C > 100 µM | SR 19.5 µM | TK-10 > 100 µM

O=[N+]([O-])c1ccc(N2N=C(c3ccc(NCc4nc5ccccc5[nH]4)cc3)CC2c2ccco2)cc1 (configuration not stated)
inactive: 786-0 44 µM | COLO 205 30.8 µM | HCT-116 16.2 µM | HOP-62 37.2 µM | HT-29 27.5 µM | IGROV-1 33 µM | KM12 16.7 µM | LOX IMVI 18.5 µM | M14 23.5 µM | NCI-H460 24.8 µM | OVCAR-5 49 µM | RPMI-8226 12.4 µM | SF-268 34.8 µM | SF-539 26.1 µM | SN12C 20.3 µM | SR 8.85 µM | TK-10 47.2 µM

C#CC(C)(C)OCCCCOc1cc(O)c2c(=O)c3ccccc3n(C)c2c1
inactive: 786-0 > 100 µM | COLO 205 23.7 µM | HCT-116 > 100 µM | HOP-62 > 100 µM | HT-29 21.7 µM | IGROV-1 > 100 µM | KM12 97.9 µM | LOX IMVI > 100 µM | M14 87.9 µM | NCI-H460 57.5 µM | OVCAR-5 > 100 µM | RPMI-8226 > 100 µM | SF-268 > 100 µM | SF-539 > 100 µM | SN12C > 100 µM | SR 89.3 µM | TK-10 > 100 µM

CC(C)=NOC(=O)Nc1cccc2c1OCO2
inactive: 786-0 > 100 µM | COLO 205 > 100 µM | HCT-116 > 100 µM | HOP-62 > 100 µM | HT-29 > 100 µM | IGROV-1 > 100 µM | KM12 71.1 µM | LOX IMVI > 100 µM | M14 > 100 µM | NCI-H460 > 100 µM | NCI/ADR-RES > 100 µM | OVCAR-5 > 100 µM | RPMI-8226 > 100 µM | SF-268 > 100 µM | SF-539 > 100 µM | SN12C > 100 µM | T47D > 100 µM | TK-10 > 100 µM

CC1CC/C(=C\c2ccc(N(C)C)cc2)C2=C1C(c1ccc(N(C)C)cc1)NC(=S)N2 (configuration not stated)
inactive: 786-0 > 100 µM | COLO 205 > 100 µM | HCT-116 > 100 µM | HT-29 > 100 µM | IGROV-1 > 100 µM | KM12 > 100 µM | LOX IMVI > 100 µM | M14 > 100 µM | MDA-N > 100 µM | NCI/ADR-RES > 100 µM | OVCAR-5 > 100 µM | RPMI-8226 > 100 µM | SF-268 > 100 µM | SF-539 > 100 µM | SN12C > 100 µM | T47D > 100 µM | TK-10 > 100 µM

CC1CC(N)=Nc2ccccc2N1 (configuration not stated)
inactive: 786-0 > 100 µM | COLO 205 > 100 µM | HCT-116 > 100 µM | HOP-62 > 100 µM | HT-29 > 100 µM | IGROV-1 54.2 µM | KM12 > 100 µM | LOX IMVI > 100 µM | M14 > 100 µM | MDA-N > 100 µM | NCI/ADR-RES > 100 µM | OVCAR-5 > 100 µM | RPMI-8226 > 100 µM | SF-268 > 100 µM | SN12C > 100 µM | TK-10 > 100 µM

COc1cc(/C=C/c2ccc(/C=C/c3cc(OC)c(OC)c(OC)c3)cc2)cc(OC)c1OC
inactive: 786-0 7.94 µM | COLO 205 51.3 µM | HCT-116 28.7 µM | HOP-62 16.6 µM | HT-29 8.26 µM | IGROV-1 26.5 µM | KM12 29.5 µM | LOX IMVI 34.4 µM | M14 39.3 µM | NCI-H460 25.5 µM | NCI/ADR-RES 22.2 µM | OVCAR-5 60.5 µM | RPMI-8226 41.6 µM | SF-268 11.7 µM | SF-539 4.6 µM | SN12C 56.8 µM | SR > 100 µM | T47D 3.39 µM | TK-10 17.6 µM

CC(=O)NNc1nc(C)c(C(=O)NNC(=O)C(=O)Nc2ccc([N+](=O)[O-])cc2C#N)s1
inactive: 786-0 67.3 µM | COLO 205 > 100 µM | HCT-116 > 100 µM | HOP-62 > 100 µM | HT-29 > 100 µM | IGROV-1 > 100 µM | KM12 > 100 µM | LOX IMVI 52.7 µM | M14 > 100 µM | NCI-H460 > 100 µM | OVCAR-5 > 100 µM | RPMI-8226 > 100 µM | SF-268 52.2 µM | SF-539 > 100 µM | SN12C > 100 µM | SR 67.1 µM | TK-10 > 100 µM

Cc1c(C(=O)CSc2nc3ccccc3c(=O)n2-c2ccccc2)c(=O)n(-c2ccccc2)n1C
inactive: 786-0 19.9 µM | COLO 205 > 100 µM | HCT-116 68.2 µM | HOP-62 31.4 µM | HT-29 > 100 µM | IGROV-1 > 100 µM | KM12 54.7 µM | LOX IMVI 42.1 µM | M14 94.2 µM | NCI-H460 37.8 µM | OVCAR-5 > 100 µM | RPMI-8226 > 100 µM | SF-268 > 100 µM | SF-539 63.2 µM | SN12C 97.7 µM | SR 82.2 µM | TK-10 41.9 µM

c1ccc2c(C3NCCc4nc[nH]c43)cccc2c1 (configuration not stated)
inactive: 786-0 > 100 µM | COLO 205 > 100 µM | HCT-116 > 100 µM | HOP-62 > 100 µM | HT-29 > 100 µM | IGROV-1 > 100 µM | KM12 > 100 µM | LOX IMVI > 100 µM | M14 > 100 µM | NCI-H460 > 100 µM | OVCAR-5 > 100 µM | RPMI-8226 > 100 µM | SF-268 > 100 µM | SF-539 > 100 µM | SN12C > 100 µM | SR > 100 µM | TK-10 > 100 µM
